The results in this text go back to PMC5120204, “Identification of an orally active small-molecule PTHR1 agonist for the treatment of hypoparathyroidism” (Nature Communications, 2016).

Series [1] is described as follows: Pharmacokinetics in OVX rats. In kind it is in vivo. The note with it: female, Crl:CD(SD), rat, plasma. The method, then: OVX was carried out in 32-week-old female Crl:CD (SD) rats (Charles River Laboratories). Twelve weeks after surgery, lumbar vertebral BMD (L3–L5) was measured in vivo by dual-energy X-ray absorptiometry (DXA) using a DCS-600EX-IIIR bone densitometer (Hitachi Aloka Medical), and the rats were divided into five groups, each with a similar mean value of BMD and body weight. Sample sizes were determined based on previous experiments with hPTHs and a published study with ibandronate and eldecalcitriol in our laboratories[42] (n=7–10). Then, OVX rats were treated once daily intravenously (vehicle or PCO371 at 3 or 10 mg kg^−1) or orally (vehicle or PCO371 at 30 mg kg^−1) or subcutaneously [vehicle or hPTH(1–34) at 0.9 nmol kg^−1] for 12 weeks. Ten to twelve OVX rats were assigned to each dose group. Nine rats were assigned to the sham-operated control group and were treated with vehicle for PCO371. Ten per cent DMSO (Wako Pure Chemical Industries)/10% Kolliphor EL (Sigma-Aldrich) in 10% hydroxypropyl-β-cyclodextrin (HPCD; Nihon Shokuhin Kako)/0.752% glycine (Wako Pure Chemical Industries) buffer was used as vehicle for PCO371, and phosphate-citrate buffer (pH 6.0) was used as vehicle for hPTH(1–34). To label bone-forming surfaces, tetracycline ([…], Nippon Zenyaku Kogyo) was subcutaneously injected on Day 78 and calcein (8 mg kg^−1, Dōjindo Laboratories) was subcutaneously injected on day 83. Under isoflurane anaesthesia, jugular vein blood was collected immediately before and at 1, 2, 6, 10 and 24 h after administration on day 82 to measure plasma concentration of PCO371 or on day 84 to measure serum Ca levels (o-CPC method, Wako Pure Chemical Industries). Urine was collected for 24 h from metabolic cages on days 84–85 to measure urinary collagen type 1 cross-linked C-telopeptide (CTX) by using the RatLaps ELISA System (Immunodiagnostic Systems). Under isoflurane anaesthesia, blood was collected on day 85 from the abdominal aorta to measure serum osteocalcin level by using the Rat Osteocalcin ELISA System (GE Healthcare). The lumbar spine and bilateral femurs were excised after 12 weeks of treatment. The first lumbar vertebra (L1), 3rd to 5th lumbar vertebrae (L3–L5), the right femur, and the right tibia were preserved in 70% ethanol to measure bone histomorphometry and BMD (DCS-600EX; Hitachi Aloka Medical). Measurement of bone histomorphometry was performed by the Ito Bone Histomorphometry Institute (Niigata, Japan). The second lumbar vertebra (L2) was wrapped in saline-soaked gauze and stored at −80 °C until measurement. Ultimate compressive strength (N) of the L2 vertebra was measured by using a mechanical testing machine (TK-252C; Muromachi Kikai).

Another series has as its system TPTX rats. Nature of the series: Repeated administration study in TPTX rats, study 2 (add-on to alfacalcidol). The series is classed as in vivo, rat. The note with it: once-daily oral 6 mg kg^−1 plus 38 ng kg^−1 of alfacalcidol, 4 weeks. The method, then: TPTX was carried out in 6-week-old female Crl:CD (SD) rats (Charles River Laboratories). Rats with serum Ca levels of <8.0 mg dl^−1 at 5 days after surgery were used in the following experiments. The rats were divided into four groups both in study 1 and 2, each with a similar mean value of serum Ca levels and body weight. Sample sizes were determined as described in the above single administration study. To evaluate the calcemic effects of PCO371 and hPTHs, we defined a target therapeutic range for serum Ca of 7.6–11.2 mg dl^−1, which corresponds to the low normal to normal range of serum Ca levels.
TPTX rats were orally treated once daily (vehicle; alfacalcidol (Chugai Pharma Manufacturing) at 38 or 75 ng kg^−1; or alfacalcidol at 38 ng kg^−1 plus PCO371 at 6 mg kg^−1) for 4 weeks. Five or six TPTX rats were assigned to each dose group. The vehicle for alfacalcidol was medium-chain triglyceride (Chugai Pharma Manufacturing). Under isoflurane anaesthesia, jugular vein blood was collected immediately before and at 6 and 10 h after administration to measure serum Ca levels on day 1 (the first dosing day), 8, 14, 22 and 28. Urine was collected for 24 h by using metabolic cages on days 28 and 29. Serum and urine Ca levels were measured in the same way as in the single-dosing study.

The subject of another series is normal dogs. Nature of the series: Single administration study in normal dogs. In kind it is in vivo, dog. Conditions: single oral administrations 3.0−30 mg kg^−1. The protocol: Marshall Beagle dogs (20 months old, male, Marshall BioResources Japan Inc) were treated once orally (vehicle or PCO371 at 3, 10 or 30 mg kg^−1). Six dogs were assigned to each group. Vehicle for PCO371 was the same as in the rat studies. The sample size was determined based on previous experiments with hPTHs in our laboratories (n=6). Blood was collected from the cephalic vein immediately before and at 1, 2, 4, 6, 8, 10 and 24 h after administration to measure serum Ca levels (o-CPC method, Wako Pure Chemical Industries).

A further series deals with UMR-106 cells. Briefly: Gene expression assay in UMR-106 cells. The series is classed as cell-based, rat. The protocol: UMR-106 cells (ATCC) were incubated with DMEM with 0.2% BSA for 4 h and were then treated with hPTH(1–34) or PCO371 for 1 or 6 h. At 1 or 6 h after adding test compounds, total RNA was isolated by using an RNeasy Plus Kit (Qiagen). cDNA was transcribed from the isolated total RNA by using TaqMan Reverse Transcription Reagents (Thermo Fisher Scientific). mRNA levels were quantified by a real-time PCR system (Thermo Fisher Scientific). The relative quantity of transcripts was calculated by using the comparative threshold cycle (Ct) method and normalized to 18S ribosomal RNA as an internal control. The following cDNA-specific primers and probes were used: Fos (encoded by Fos, Rn02396759_m1), osteocalcin (encoded by Bglap, Rn00566386_g1), receptor activator of nuclear factor-κB ligand (RANKL, encoded by Tnfsf11, Rn00589289_m1), osteoprotegerin (osteoprotegerin, encoded by Tnfrsf11b, Rn00563499_m1) and sclerostin (encoded by Sost, Rn00577971_m1).

SMILES strings stand for the structures.

For `Cc1cc(N2C(=O)NC(=O)C2(C)C)cc(C)c1CCS(=O)(=O)N1CCC2(CC1)N=C(c1ccc(OC(F)(F)F)cc1)NC2=O` [PCO371, 1-{3,5-dimethyl-4-[2-({4-oxo-2-[4-(trifluoromethoxy)phenyl]-1,3,8-triazaspiro[4.5]dec-1-en-8-yl}sulfonyl)ethyl]phenyl}-5,5-dimethylimidazolidine-2,4-dione], in series [1] (iv, i.v. 3 mg kg-1), the AUC was 15500 ng·h/mL and the half-life was 2.4 ± 0.2 h. Moreover, in series [1] (iv, i.v. 10 mg kg-1), the AUC is 48700 ng·h/mL and the half-life is 2.2 ± 0.2 h. For the same compound, in series [1] (po, p.o. 30 mg kg-1), the AUC was 29500 ng·h/mL, the Cmax was determined as 95.6 ± 84.4 ng/mL, the Tmax turned out to be 1.4 ± 0.8 h and the half-life is 2.5 ± 0.3 h. Besides, in the series with TPTX rats, the “serum Ca” value is listed as “comparable with that by 75 ng kg^−1 of alfacalcidol alone” and the “urinary Ca excretion” value is listed as “did not elevate urinary Ca excretion”. Also, in the series with normal dogs, the “serum Ca” value is recorded as “significantly increased”. Also, in the series with UMR-106 cells (1 h (Fos) or 6 h), the “expression of mRNAs for Fos, osteocalcin and RANKL” value is “dose-dependently increased”. For the same compound, the “expression of mRNAs for osteoprotegerin and sclerostin” value in the series on UMR-106 cells (6 h) was “dose-dependently decreased”.
